# Test results as given in article PMC4013070, “The Imaging of Insulinomas Using a Radionuclide-Labelled Molecule of the GLP-1 Analogue Liraglutide: A New Application of Liraglutide” (PLoS ONE, 2014).
# Key:
# [1] = cited from earlier work
# [2] = In vitro stability in fetal bovine serum; type: in vitro ADME; settings: 37°C, 0 h
# [3] = system: INS-1 insulinoma xenograft; assay: In vivo distribution of radioactivity across organs in nude mouse insulinoma model; parameters: species or system BALB/c nude mice; settings: 90 min after injection of approx. 100 µCi, from %ID/g, mean ± SD, N = 3
# Experimental: (§1) A total of 24 nude mice were each subcutaneously injected in the armpit of the right upper limb with 100 µl of a suspension of INS-1 cells (containing approximately 10^7 cells per 100 µl). The nude mice were reared under conventional sterile conditions and given 5% dextrose injections as drinking water (Shanghai Changzheng Fumin Jinshan Pharmaceutical, Shanghai, China). Their blood glucose levels were monitored every 2–3 days with a glucometer (Accu-Chek Integra integrated blood glucose meter, Roche, Berlin, Germany), and all measured blood glucose levels were at least 3 mmol/L.
# Six nude mice each received a 100 µl injection containing approximately 100 µCi of ^125I-liraglutide. At 90 min and 360 min after this injection, 3 mice were sacrificed by cervical dislocation. First, blood was collected from the heart; next, isolated various organs and tissues, including the heart, lungs, liver, stomach, kidneys, spleen, small intestine, and pancreas, as well as muscle tissue and the tumour; the isolated samples were then placed into tubes that were impervious to γ radiation and weighed. For each tube, the radioactivity in counts per minute was then measured by a γ counter. The results were presented in terms of %ID/g (the percentage of the total injected dose of radioactivity per gram of tissue). Histograms of %ID/g for various organs at the 90 min and 360 min time points were plotted.
# [4] = system: INS-1 insulinoma xenograft; assay: In vivo blocking experiment with unlabelled liraglutide (biodistribution); parameters: species or system BALB/c nude mice; settings: 100 µg unlabelled liraglutide i.v. 30 min before approx. 100 µCi tracer, 90 min, p<0.05, N = 3
# Experimental: as §1
# In this experiment, 100 µl of liraglutide solution containing 100 µg of unlabelled liraglutide, was injected into the tail veins of each of 3 nude mice with insulinoma. Half an hour later, 100 µl of ^125I-liraglutide solution containing approximately 100 µCi of ^125I-liraglutide was injected into the tail vein of each mouse. To create an unblocked experimental group that corresponded with this blocked group, 100 µl of ^125I-liraglutide solution containing approximately 100 µCi of ^125I-liraglutide was injected into the tail veins of each of 3 more nude mice with insulinoma. These six nude mice with insulinoma were sacrificed by cervical dislocation at 90 min after the ^125I-liraglutide injection. First, blood was collected from the heart and various organs and tissues were isolated; the isolated samples were then placed into tubes that were impervious to γ radiation and weighed. For each tube, the radioactivity in counts per minute was then measured by a γ counter. The results were presented in terms of %ID/g. A histogram of %ID/g for various organs at the 90 min time point in the blocked and unblocked groups was plotted.
# [5] = in vivo; cited from earlier work
# Excerpt: This approach can be utilised for qualitative diagnoses, accurate staging, and evaluation of treatment efficacy. However, the detection rate of SSTR imaging for insulinoma is not high. […] This limited utility is because in tumours, among the five subtypes of SSTRs (SSTR1-SSTR5), radionucli ...
# GLP-1 receptors = target: GLP-1 receptors; parameters: method as in PMID 23652208; settings: Rin-m5f insulinoma cells, earlier exendin-4 imaging study of the authors; cited from earlier work
molecule,measurement,setting,value
CCCCCCCCCCCCCCCC(=O)N[C@@H](CCC(=O)NCCCC[C@H](NC(=O)[C@H](C)NC(=O)[C@H](C)NC(=O)[C@H](CCC(N)=O)NC(=O)CNC(=O)[C@H](CCC(=O)O)NC(=O)[C@H](CC(C)C)NC(=O)[C@H](Cc1ccc(O)cc1)NC(=O)[C@H](CO)NC(=O)[C@H](CO)NC(=O)[C@@H](NC(=O)[C@H](CC(=O)O)NC(=O)[C@H](CO)NC(=O)[C@@H](NC(=O)[C@H](Cc1ccccc1)NC(=O)[C@@H](NC(=O)CNC(=O)[C@H](CCC(=O)O)NC(=O)[C@H](C)NC(=O)[C@@H](N)Cc1cnc[nH]1)[C@@H](C)O)[C@@H](C)O)C(C)C)C(=O)N[C@@H](CCC(=O)O)C(=O)N[C@@H](Cc1ccccc1)C(=O)N[C@H](C(=O)N[C@@H](C)C(=O)N[C@@H](Cc1c[nH]c2ccccc12)C(=O)N[C@@H](CC(C)C)C(=O)N[C@H](C(=O)N[C@@H](CCCNC(=N)N)C(=O)NCC(=O)N[C@@H](CCCNC(=N)N)C(=O)NCC(=O)O)C(C)C)[C@@H](C)CC)C(=O)O [liraglutide],in vivo half-life,[1],up to 13 h
CCCCCCCCCCCCCCCC(=O)N[C@@H](CCC(=O)NCCCC[C@H](NC(=O)[C@H](C)NC(=O)[C@H](C)NC(=O)[C@H](CCC(N)=O)NC(=O)CNC(=O)[C@H](CCC(=O)O)NC(=O)[C@H](CC(C)C)NC(=O)[C@H](Cc1ccc(O)c(I)c1)NC(=O)[C@H](CO)NC(=O)[C@H](CO)NC(=O)[C@@H](NC(=O)[C@H](CC(=O)O)NC(=O)[C@H](CO)NC(=O)[C@@H](NC(=O)[C@H](Cc1ccccc1)NC(=O)[C@@H](NC(=O)CNC(=O)[C@H](CCC(=O)O)NC(=O)[C@H](C)NC(=O)[C@@H](N)Cc1c[nH]cn1)[C@@H](C)O)[C@@H](C)O)C(C)C)C(=O)N[C@@H](CCC(=O)O)C(=O)N[C@@H](Cc1ccccc1)C(=O)N[C@H](C(=O)N[C@@H](C)C(=O)N[C@@H](Cc1c[nH]c2ccccc12)C(=O)N[C@@H](CC(C)C)C(=O)N[C@H](C(=O)N[C@@H](CCCNC(=N)N)C(=O)NCC(=O)N[C@@H](CCCNC(=N)N)C(=O)NCC(=O)O)C(C)C)[C@@H](C)CC)C(=O)O [125I-liraglutide],intact peptide in fetal bovine serum,[2],92.9%
same,"T/NT ratio, tumour to muscle tissue",[3],4.83±1.30
same,"T/NT ratio, tumour to pancreatic tissue",[3],2.73±0.80
same,radioactivity (%ID/g) of the lungs after blocking,[4],significantly decreased
same,radioactivity (%ID/g) of the pancreas after blocking,[4],significantly decreased
same,radioactivity (%ID/g) of the tumour after blocking,[4],significantly reduced
Glucagon-like peptide-1 [GLP-1],serum half-life,[5],less than 2 min
Exendin-4,IC50,GLP-1 receptors,0.35 to 2.81 nM
same,Kd,GLP-1 receptors,56.6 nM
